Laboratory results published in the NIST ThermoML archive (doi:10.1021/acs.jced.6b00688).

Test: xn = mol fraction of the nth substance listed
Details: 100 kPa, Liquid; for viscosity: Falling or rolling sphere viscometry; for mass density: Vibrating tube method

OCC1CCCCC1 [cyclohexylmethanol] + CCCCCCCCCCCC
Details	mass density [kg/m3]	viscosity [mPa·s]
293.15 K, x2 = 0.1014	898.17	18.36
293.15 K, x2 = 0.1991	872.04	9.786
293.15 K, x2 = 0.299	849.06	6.177
293.15 K, x2 = 0.3997	828.81	4.307
293.15 K, x2 = 0.4992	811.3	3.223
293.15 K, x2 = 0.6005	795.57	2.542
293.15 K, x2 = 0.7008	781.83	2.087
293.15 K, x2 = 0.7986	769.9	1.809
293.15 K, x2 = 0.8996	758.73	1.594
298.15 K, x2 = 0.1014	894.59	14.59
298.15 K, x2 = 0.1991	868.46	7.99
298.15 K, x2 = 0.299	845.44	5.179
298.15 K, x2 = 0.3997	825.18	3.688
298.15 K, x2 = 0.4992	807.71	2.813
298.15 K, x2 = 0.6005	791.92	2.251
298.15 K, x2 = 0.7008	778.16	1.873
298.15 K, x2 = 0.7986	766.22	1.633
298.15 K, x2 = 0.8996	755.05	1.447
303.15 K, x2 = 0.1014	890.99	11.73
303.15 K, x2 = 0.1991	864.86	6.621
303.15 K, x2 = 0.299	841.79	4.403
303.15 K, x2 = 0.3997	821.5	3.197
303.15 K, x2 = 0.4992	804.02	2.479
303.15 K, x2 = 0.6005	788.23	2.01
303.15 K, x2 = 0.7008	774.47	1.69
303.15 K, x2 = 0.7986	762.53	1.481
303.15 K, x2 = 0.8996	751.37	1.321
308.15 K, x2 = 0.1014	887.35	9.573
308.15 K, x2 = 0.1991	861.23	5.545
308.15 K, x2 = 0.299	838.08	3.779
308.15 K, x2 = 0.3997	817.79	2.795
308.15 K, x2 = 0.4992	800.32	2.201
308.15 K, x2 = 0.6005	784.52	1.806
308.15 K, x2 = 0.7008	770.76	1.532
308.15 K, x2 = 0.7986	758.82	1.351
308.15 K, x2 = 0.8996	747.67	1.211
313.15 K, x2 = 0.1014	883.69	7.9
313.15 K, x2 = 0.1991	857.57	4.691
313.15 K, x2 = 0.299	834.37	3.271
313.15 K, x2 = 0.3997	814.07	2.461
313.15 K, x2 = 0.4992	796.59	1.966
313.15 K, x2 = 0.6005	780.79	1.631
313.15 K, x2 = 0.7008	767.03	1.395
313.15 K, x2 = 0.7986	755.09	1.237
313.15 K, x2 = 0.8996	743.96	1.115
318.15 K, x2 = 0.1014	879.99	6.588
318.15 K, x2 = 0.1991	853.91	4.005
318.15 K, x2 = 0.299	830.77	2.854
318.15 K, x2 = 0.3997	810.31	2.183
318.15 K, x2 = 0.4992	792.83	1.767
318.15 K, x2 = 0.6005	777.04	1.48
318.15 K, x2 = 0.7008	763.28	1.276
318.15 K, x2 = 0.7986	751.35	1.138
318.15 K, x2 = 0.8996	740.24	1.031
323.15 K, x2 = 0.1014	876.25	5.525
323.15 K, x2 = 0.1991	850.16	3.447
323.15 K, x2 = 0.299	827.01	2.507
323.15 K, x2 = 0.3997	806.53	1.947
323.15 K, x2 = 0.4992	789.05	1.594
323.15 K, x2 = 0.6005	773.26	1.348
323.15 K, x2 = 0.7008	759.51	1.171
323.15 K, x2 = 0.7986	747.58	1.05
323.15 K, x2 = 0.8996	736.5	0.957
328.15 K, x2 = 0.1014	872.47	4.696
328.15 K, x2 = 0.1991	846.36	2.99
328.15 K, x2 = 0.299	823.2	2.216
328.15 K, x2 = 0.3997	802.71	1.746
328.15 K, x2 = 0.4992	785.24	1.446
328.15 K, x2 = 0.6005	769.45	1.233
328.15 K, x2 = 0.7008	755.71	1.079
328.15 K, x2 = 0.7986	743.79	0.973
328.15 K, x2 = 0.8996	732.74	0.891
333.15 K, x2 = 0.1014	868.64	3.987
333.15 K, x2 = 0.1991	842.52	2.614
333.15 K, x2 = 0.299	819.35	1.972
333.15 K, x2 = 0.3997	798.87	1.574
333.15 K, x2 = 0.4992	781.41	1.318
333.15 K, x2 = 0.6005	765.62	1.132
333.15 K, x2 = 0.7008	751.89	0.997
333.15 K, x2 = 0.7986	739.98	0.904
333.15 K, x2 = 0.8996	728.97	0.832
